Experimental data reported in EP4768484A1, “HETEROCYCLIC FUSED RING COMPOUND, AND COMPOSITION AND USE THEREOF” (Shenzhen TargetRx, Inc., priority 2023, dated 2025).

Key:
Format in all cases: cell-based
K562 cells = experiment: Cell growth inhibitory activity assay (CellTiter-Glo), K562 cells; conditions: Homo sapiens, 72 h, CTG cell viability
Procedure, shortened: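 K562 cells in logarithmic growth were counted, diluted and plated in 96-well plates, with medium-only blanks and a separate T0 plate read by CTG the following day. After overnight incubation, graded compound concentrations were added for 72 h, with 0.5% DMSO wells as growth controls. Luminescence was read on a Biotek cytation3.0, and IC50 came from nonlinear fitting in GraphPad Prism 7.0.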

[1] = molecular target: T1, Ba/F3 BCR-ABL1 E255V/T315I (Homo sapiens, UniProt P00519+P11274, E255V/T315I); experiment: Cell growth inhibitory activity assay (CellTiter-Glo), Ba/F3 BCR-ABL1 E255V/T315I cells; conditions: 72 h, CTG cell viability
T1 construct: BCR (N-terminal fusion partner of the oncoprotein); expressed in transfected cells; host or cells: Ba/F3 (lentiviral transduction, monoclonal line)
Procedure: (§1) In this assay, the Celltiter-Glo (CTG) kit provided by Promega was used, and it is a homogeneous cell viability assay method. The cell viability of cultured cells was measured by quantifying ATP. K562 cells were purchased from Nanjing Kebai, product number CBP60529; Ba/F3 parental cells were purchased from RIKEN BRC, product number RCB0805; other cells containing BCR-ABL1 WT, BCR-ABL1 T315I, BCR-ABL1 T315M, BCR-ABL1 Y253H/E255K, BCR-ABL1 E255V/T3151, BCR-ABL1 A424T, BCR-ABL1 A337V, BCR-ABL1 P465S, BCR-ABL1 V468F, and BCR-ABL1 I502L were all monoclonal engineered cell lines obtained by transducting Ba/F3 parental cells with the lentivirus plasmids containing WT or corresponding mutated BCR-ABL1.
(§2) The steps of cell viability assay are as follows: • a) Cells in logarithmic growth phase were collected. Cell suspension was prepared and the cells were counted. Concentration of the cells was calculated. • b) The cell suspension was diluted to the required concentration and then added to the middle wells of a 96-well plate, and PBS was added to the edge wells. The wells with no cells and only culture medium were used as blank controls. • c) In addition to the cell plate used for compound analysis, another 96-well plate was prepared as a T0 plate, and 3-6 blank wells and 3-6 cell wells were added. The next day, CTG was used to test the cell viability as the T0 viability value of the cells. • d) The cell plate was incubated at 37 °C in a 5% CO2 incubator overnight. • e) The next day, each concentration of a compound subjected to a gradient dilution was added, and the cell plate was incubated at 37 °C in a 5% CO2 incubator for 72 h. The wells with no compound and only 0.5% DMSO were used as positive controls for cell growth. • f) CTG reagent (CellTiter-Glo kit) was added according to the manufacturer's instructions to test the cell viability value. • g) The plate was read using Biotek cytation3.0 microplate reader and the data were exported. • h) IC50 was calculated using GraphPad Prism 7.0 software.
(§3) The IC50 (half-maximal inhibitory concentration) of the compound was obtained using the following nonlinear fitting formula: Y = Bottom + (Top−Bottom)/(1+10^(∧)((LogIC50−X)*HillSlope)) [formula] • X: Log value of the compound concentration • Y: Inhibition rate (% inhibition) • Top: Maximum response • Bottom: Baseline response • HillSlope: Slope of the curve
(§4) The formula for calculating cell inhibition rate (inhibition rate %) was: [formula]

Ba/F3 BCR-ABL1 T315M = molecular target: T2, Ba/F3 BCR-ABL1 T315M (Homo sapiens, UniProt P00519+P11274, T315M); experiment: Cell growth inhibitory activity assay (CellTiter-Glo), Ba/F3 BCR-ABL1 T315M cells; conditions: 72 h, CTG cell viability
T2 construct: BCR (N-terminal fusion partner of the oncoprotein); expressed in transfected cells; host or cells: Ba/F3 (lentiviral transduction, monoclonal line)
Procedure: as §1, §2, §3, §4

Ba/F3 BCR-ABL1 WT = molecular target: T3, Ba/F3 BCR-ABL1 WT (Homo sapiens, UniProt P00519+P11274); experiment: Cell growth inhibitory activity assay (CellTiter-Glo), Ba/F3 BCR-ABL1 WT cells; conditions: 72 h, CTG cell viability
T3 construct: BCR (N-terminal fusion partner of the oncoprotein); expressed in transfected cells; host or cells: Ba/F3 (lentiviral transduction, monoclonal line)
Procedure, shortened: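 Ba/F3 lines stably transduced by lentivirus with WT or mutant BCR-ABL1, alongside untransduced parental Ba/F3, were seeded and incubated overnight at 37 °C, 5% CO2, then exposed to serially diluted compound for 72 h. Viability was read as ATP by CellTiter-Glo luminescence against a day-of-dosing T0 plate; IC50 from four-parameter nonlinear fit.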

Ba/F3 BCR-ABL1 V468F = molecular target: T4, Ba/F3 BCR-ABL1 V468F (Homo sapiens, UniProt P00519+P11274, V468F); experiment: Cell growth inhibitory activity assay (CellTiter-Glo), Ba/F3 BCR-ABL1 V468F cells; conditions: 72 h, CTG cell viability
T4 construct: BCR (N-terminal fusion partner of the oncoprotein); expressed in transfected cells; host or cells: Ba/F3 (lentiviral transduction, monoclonal line)
Procedure: as §1, §2, §3, §4

[2] = molecular target: T5, Ba/F3 BCR-ABL1 Y253H/E255K (Homo sapiens, UniProt P00519+P11274, E255K/Y253H); experiment: Cell growth inhibitory activity assay (CellTiter-Glo), Ba/F3 BCR-ABL1 Y253H/E255K cells; conditions: 72 h, CTG cell viability
T5 construct: BCR (N-terminal fusion partner of the oncoprotein); expressed in transfected cells; host or cells: Ba/F3 (lentiviral transduction, monoclonal line)
Procedure: as §1, §2, §3, §4

Ba/F3 BCR-ABL1 T315I = molecular target: T6, Ba/F3 BCR-ABL1 T315I (Homo sapiens, UniProt P00519+P11274, T315I); experiment: Cell growth inhibitory activity assay (CellTiter-Glo), Ba/F3 BCR-ABL1 T315I cells; conditions: 72 h, CTG cell viability
T6 construct: BCR (N-terminal fusion partner of the oncoprotein); expressed in transfected cells; host or cells: Ba/F3 (lentiviral transduction, monoclonal line)
Procedure, shortened: (§5)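 IC50 values come from nonlinear fitting of % inhibition against log concentration, with viability taken as ATP content by CellTiter-Glo. Parental Ba/F3 or Ba/F3 monoclonal lines expressing lentivirally introduced mutant BCR-ABL1 were dosed for 72 h; controls included 0.5% DMSO wells and a T0 plate.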

Ba/F3 parental cells = experiment: Cell growth inhibitory activity assay (CellTiter-Glo), Ba/F3 parental cells; conditions: Mus musculus, BaF3, 72 h, CTG cell viability, read-out: IC50 Ba/F3 BCR-ABL1 Parental
Procedure, shortened: as §5

Ba/F3 BCR-ABL1 A424T = molecular target: T7, Ba/F3 BCR-ABL1 A424T (Homo sapiens, UniProt P00519+P11274, A424T); experiment: Cell growth inhibitory activity assay (CellTiter-Glo), Ba/F3 BCR-ABL1 A424T cells; conditions: 72 h, CTG cell viability
T7 construct: BCR (N-terminal fusion partner of the oncoprotein); expressed in transfected cells; host or cells: Ba/F3 (lentiviral transduction, monoclonal line)
Procedure: as §1, §2, §3, §4

Ba/F3 BCR-ABL1 I502L = molecular target: T8, Ba/F3 BCR-ABL1 I502L (Homo sapiens, UniProt P00519+P11274, I502L); experiment: Cell growth inhibitory activity assay (CellTiter-Glo), Ba/F3 BCR-ABL1 I502L cells; conditions: 72 h, CTG cell viability
T8 construct: BCR (N-terminal fusion partner of the oncoprotein); expressed in transfected cells; host or cells: Ba/F3 (lentiviral transduction, monoclonal line)
Procedure: as §1, §2, §3, §4

Ba/F3 BCR-ABL1 A337V = molecular target: T9, Ba/F3 BCR-ABL1 A337V (Homo sapiens, UniProt P00519+P11274, A337V); experiment: Cell growth inhibitory activity assay (CellTiter-Glo), Ba/F3 BCR-ABL1 A337V cells; conditions: 72 h, CTG cell viability
T9 construct: BCR (N-terminal fusion partner of the oncoprotein); expressed in transfected cells; host or cells: Ba/F3 (lentiviral transduction, monoclonal line)
Procedure: as §1, §2, §3, §4

Ba/F3 BCR-ABL1 P465S = molecular target: T10, Ba/F3 BCR-ABL1 P465S (Homo sapiens, UniProt P00519+P11274, P465S); experiment: Cell growth inhibitory activity assay (CellTiter-Glo), Ba/F3 BCR-ABL1 P465S cells; conditions: 72 h, CTG cell viability
T10 construct: BCR (N-terminal fusion partner of the oncoprotein); expressed in transfected cells; host or cells: Ba/F3 (lentiviral transduction, monoclonal line)
Procedure: as §1, §2, §3, §4

IC50 (K562 cells) [nM] | Compound | IC50 [1] [nM] | IC50 (Ba/F3 BCR-ABL1 T315M) [nM] | IC50 (Ba/F3 BCR-ABL1 WT) [nM] | IC50 (Ba/F3 BCR-ABL1 V468F) [nM] | IC50 [2] [nM] | IC50 (Ba/F3 BCR-ABL1 T315I) [nM] | IC50 (Ba/F3 parental cells) [nM] | IC50 (Ba/F3 BCR-ABL1 A424T) [nM] | IC50 (Ba/F3 BCR-ABL1 I502L) [nM] | IC50 (Ba/F3 BCR-ABL1 A337V) [nM] | IC50 (Ba/F3 BCR-ABL1 P465S) [nM]
≤ 5 | C[C@@H]1COCc2nc3cc(C(=O)Nc4ccc(OC(F)(F)Cl)cc4)cc(-c4cnc5c(c4)-c4n[nH]cc4C5)c3n21 [T-3, (R)-N-(4-(chlorodifluoromethoxy)phenyl)-6-(2,4-dihydropyrazolo[3',4':3,4]cyclopenta[1,2-b]pyridin-7-yl)-4-methyl-3,4-dihydro-1H-benzo[4,5]imidazo[2,1-c][1,4]oxazine-8-carboxamide] | ≤ 5 | 50 to 1000 | ≤ 5 | 5 to 50 | ≤ 5 | ≤ 5 | > 1000 | 5 to 50 | 5 to 50 | 5 to 50 | 5 to 50
≤ 5 | CN1Cc2ncc(-c3cc(C(=O)Nc4ccc(OC(F)(F)Cl)cc4)cc4c3C(C)(C)C(=O)N4)cc2C1=O [T-7, N-(4-(chlorodifluoromethoxy)phenyl)-3,3-dimethyl-4-(6-methyl-5-oxo-6,7-dihydro-5H-pyrrolo[3,4-b]pyridin-3-yl)-2-oxoindoline-6-carboxamide] | 5 to 50 | – | ≤ 5 | 50 to 1000 | – | 5 to 50 | > 1000 | > 1000 | 50 to 1000 | > 1000 | > 1000

More lines, now with the values behind:

Compound | IC50 (K562 cells) [nM] | IC50 [1] [nM] | IC50 (Ba/F3 BCR-ABL1 T315M) [nM] | IC50 (Ba/F3 BCR-ABL1 WT) [nM] | IC50 (Ba/F3 BCR-ABL1 V468F) [nM] | IC50 [2] [nM] | IC50 (Ba/F3 BCR-ABL1 T315I) [nM] | IC50 (Ba/F3 parental cells) [nM] | IC50 (Ba/F3 BCR-ABL1 A424T) [nM] | IC50 (Ba/F3 BCR-ABL1 I502L) [nM] | IC50 (Ba/F3 BCR-ABL1 A337V) [nM] | IC50 (Ba/F3 BCR-ABL1 P465S) [nM]
CC(=O)NC1CCC2c3cc(C(=O)Nc4ccc(OC(F)(F)Cl)cc4)cc(-c4cnc5c(c4)C(=O)N(C)C5)c3N(C(C)C)C12 (racemic) [T-11, 3-acetamido-N-(4-(chlorodifluoromethoxy)phenyl)-4-isopropyl-5-(6-methyl-5-oxo-6,7-dihydro-5H-pyrrolo[3,4-b]pyridin-3-yl)-1,2,3,3a,4,8b-hexahydrocyclopenta[b]indole-7-carboxamide] | ≤ 5 | 50 to 1000 | > 1000 | ≤ 5 | > 1000 | 50 to 1000 | 50 to 1000 | > 1000 | 50 to 1000 | – | – | –
CC(C)n1cnc2cc(C(=O)Nc3ccc(OC(F)(F)Cl)cc3)cc(-c3cnc4c(c3)C(=O)N(C)C4)c21 [T-2, N-(4-(chlorodifluoromethoxy)phenyl)-1-isopropyl-7-(6-methyl-5-oxo-6,7-dihydro-5H-pyrrolo[3,4-b]pyridin-3-yl)-1H-benzo[d]imidazole-5-carboxamide] | ≤ 5 | 5 to 50 | – | ≤ 5 | 50 to 1000 | – | 5 to 50 | > 1000 | 50 to 1000 | 50 to 1000 | 50 to 1000 | 50 to 1000
C[C@@H]1COCc2nc3cc(C(=O)Nc4ccc(OC(F)(F)Cl)cc4)cc(-c4cnc5c(c4)-c4nn(-c6ccccn6)cc4C5)c3n21 [T-4] | ≤ 5 | 5 to 50 | > 1000 | ≤ 5 | 50 to 1000 | ≤ 5 | ≤ 5 | > 1000 | 5 to 50 | 5 to 50 | 50 to 1000 | 50 to 1000
